# Reference: patent publication US10160726B2, “Quinolone derivatives as antibacterials” (priority 2014, dated 2018)
# Counter-ions that a name gives are not always drawn. Like-named read-outs stand apart in the source and are kept apart here.
# What was measured:
# [1] = molecular target: E. coli DNA gyrase (GyrA-B) (Escherichia coli, UniProt P0AES4); experiment: Supercoiling assay of E. coli gyrase; type: biochemical
# Description: Method 1: Supercoiling Assay of E. Coli Gyrase
# Enzymatic activity of E. coli DNA gyrase reconstituted from its purified subunits was assessed by monitoring the introduction of supercoils into the relaxed plasmid pHOT-1 (TopoGEN, TG2035-3). To form the functional gyrase A2B2 heterotetrameric enzyme, equal molar concentrations of the GyrA and GyrB subunits were combined at high protein concentration (500 nM) and incubated on ice for 1 hour prior to assay start in reaction buffer without ATP or the pHOT-1 plasmid. The reaction mixture (25 μl) contained 10 nM enzyme, 10 ng/μl pHOT-1, 1 mM ATP, 35 mM Tris-HCl pH 7.5, 24 mM KCl, 4 mM MgCl2, 2 mM DTT, 1.8 mM spermidine, 6.5% glycerol, and 100 μg/ml bovine serum albumin. The reaction was carried out at 37° C. for 90 minutes and terminated by the addition of 2.5 μl of 10× stop solution (0.9% SDS, 50% glycerol, 0.05% bromophenol blue). […] Gels were stained with ethidium bromide (0.5 μg/ml) for 30 minutes and destained in water for 20 minutes. All gels were analyzed using the BIO-RAD ChemiDocTm XRS+ with Image Lab 3.0 software. The 50% inhibition concentration (IC50) was determined as being the compound concentration at which the supercoiled band was reduced by 50% from the DMSO drug free control (Microsoft Excel 2010 IDBS XLfit, GraftPad Prism 6).
# [2] = system: S. aureus NB01006-AVR005 (gyrA S84L, grlA S80F, grlB E471K); experiment: microbe, parasite or virus in culture; type: cell-based; conditions: Staphylococcus aureus, 20 h, read-out: Antibacterial activity (MIC) NB01006-AVR005
# [3] = molecular target: E. coli DNA topoisomerase IV (Topo IV, ParC-E) (Escherichia coli, UniProt P0AFI2); experiment: Decatenation assay of E. coli Topo IV; type: biochemical
# Sequence of E. coli DNA topoisomerase IV (Topo IV, ParC-E) (P0AFI2 whole entry): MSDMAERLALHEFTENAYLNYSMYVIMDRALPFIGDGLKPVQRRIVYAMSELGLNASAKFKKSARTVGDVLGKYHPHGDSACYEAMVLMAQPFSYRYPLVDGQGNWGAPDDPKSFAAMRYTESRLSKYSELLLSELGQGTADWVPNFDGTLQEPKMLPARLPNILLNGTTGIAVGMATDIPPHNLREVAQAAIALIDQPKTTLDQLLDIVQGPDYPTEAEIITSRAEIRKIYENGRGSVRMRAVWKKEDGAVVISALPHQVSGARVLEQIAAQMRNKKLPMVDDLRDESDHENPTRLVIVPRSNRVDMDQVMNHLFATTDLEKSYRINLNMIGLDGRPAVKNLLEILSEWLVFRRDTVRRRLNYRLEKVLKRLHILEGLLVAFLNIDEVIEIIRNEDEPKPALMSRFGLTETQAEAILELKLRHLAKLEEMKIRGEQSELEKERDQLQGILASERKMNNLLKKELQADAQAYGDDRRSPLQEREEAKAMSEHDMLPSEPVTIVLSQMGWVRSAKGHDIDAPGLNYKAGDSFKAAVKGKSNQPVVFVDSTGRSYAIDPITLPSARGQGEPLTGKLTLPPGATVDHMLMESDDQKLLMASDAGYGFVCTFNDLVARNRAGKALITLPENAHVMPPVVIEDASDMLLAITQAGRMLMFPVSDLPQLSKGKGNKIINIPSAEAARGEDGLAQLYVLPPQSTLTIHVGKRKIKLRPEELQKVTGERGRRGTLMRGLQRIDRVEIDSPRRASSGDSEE
# Sequence of E. coli DNA topoisomerase IV (Topo IV, ParC-E) (P20083 whole entry, further chain): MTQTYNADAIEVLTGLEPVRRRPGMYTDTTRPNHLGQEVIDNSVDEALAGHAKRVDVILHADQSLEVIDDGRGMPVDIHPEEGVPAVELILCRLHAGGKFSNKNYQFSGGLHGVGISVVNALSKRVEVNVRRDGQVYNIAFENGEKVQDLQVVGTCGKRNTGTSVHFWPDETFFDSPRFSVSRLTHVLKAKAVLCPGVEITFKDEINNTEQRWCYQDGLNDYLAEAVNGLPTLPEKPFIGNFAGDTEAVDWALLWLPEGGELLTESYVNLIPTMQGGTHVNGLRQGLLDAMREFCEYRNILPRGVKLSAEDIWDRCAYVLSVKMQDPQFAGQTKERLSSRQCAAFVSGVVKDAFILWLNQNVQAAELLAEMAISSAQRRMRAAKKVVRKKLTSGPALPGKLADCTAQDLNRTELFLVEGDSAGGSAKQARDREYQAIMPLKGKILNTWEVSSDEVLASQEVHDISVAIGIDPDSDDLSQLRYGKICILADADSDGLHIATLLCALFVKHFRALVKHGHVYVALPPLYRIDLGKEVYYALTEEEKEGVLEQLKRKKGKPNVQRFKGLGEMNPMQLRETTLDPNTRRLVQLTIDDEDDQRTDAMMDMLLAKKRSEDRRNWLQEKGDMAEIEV
# Description: Method 2: Decatenation Assay of E. Coli Topo IV
# Enzymatic activity of the E. coli DNA topoisomerase IV (Topo IV) reconstituted from its purified subunits was monitored by the decatenation of kinetoplast DNA into minicircles (kDNA, TopoGEN, TG2013-3). To form the functional Topo IV C2E2 heterotetrameric enzyme, equal molar concentrations of the ParC and ParE subunits were combined at high protein concentration (500 nM) and incubated on ice for 1 hour prior to assay start in reaction buffer without ATP or the kDNA. […] The reaction was carried out at 37° C. for 2 hours and terminated by the addition of 2.5 μl of 10× stop solution (0.9% SDS, 50% glycerol, 0.05% bromophenol blue). […] Gels were stained with ethidium bromide (0.5 μg/ml) for 30 minutes and distained in water for 20 minutes. All gels were analyzed using the BIO-RAD ChemiDoc™ XRS^+ with Image Lab 3.0 software. The 50% inhibitor concentration (IC50) was determined as being the compound concentration at which the presence of the kDNA minicircles in the gel was reduced by 50% from the DMSO drug free control (Microsoft Excel 2010 IDBS XLfit, Graph Pad Prism 6).
# [4] = system: E. coli ATCC 25922 (NB27001); experiment: MIC, broth microdilution (CLSI); type: cell-based; conditions: Escherichia coli, ATCC25922; E. coli ATCC 25922; 35° C., 20 hours; read-out: Antibacterial activity (MIC) NB27001
# [5] = system: E. coli NB27177 (efflux deficient CGSC 11430, ΔtolC732::kan); experiment: microbe, parasite or virus in culture; type: cell-based; conditions: Escherichia coli, 20 h, read-out: Antibacterial activity (MIC) NB27177
# [6] = system: P. aeruginosa NB52019 (wild-type PAO1); experiment: MIC, broth microdilution (CLSI); type: cell-based; conditions: Pseudomonas aeruginosa, read-out: Antibacterial activity (MIC) NB52019
# [7] = system: P. aeruginosa NB52023 (efflux deficient K1542, ΔmexX ΔmexB); experiment: microbe, parasite or virus in culture; type: cell-based; conditions: Pseudomonas aeruginosa, 20 h, read-out: Antibacterial activity (MIC) NB52023
# [8] = system: P. aeruginosa NB52023-CDK0006 (gyrA T83I, parC S87L); experiment: microbe, parasite or virus in culture; type: cell-based; conditions: Pseudomonas aeruginosa, 20 h, read-out: Antibacterial activity (MIC) NB52023-CDK0006
# [9] = system: S. aureus ATCC 29213 (NB01001); experiment: MIC, broth microdilution (CLSI); type: cell-based; conditions: Staphylococcus aureus, ATCC29213; S. aureus ATCC 29213; 35° C., 20 hours; read-out: Antibacterial activity (MIC) NB01001
# [10] = supercoiling activity of E. coli gyrase (GyrA-B), read-out: GyrA-B IC50 (Enzyme)
# [11] = P. aeruginosa wild-type PAO1, 35° C., 20 hours
# [12] = decatenation activity of E. coli topoIV (ParC-E), read-out: ParC-E IC50 (Enzyme)
# Sequence of E. coli DNA gyrase (GyrA-B) (P0AES4 whole entry): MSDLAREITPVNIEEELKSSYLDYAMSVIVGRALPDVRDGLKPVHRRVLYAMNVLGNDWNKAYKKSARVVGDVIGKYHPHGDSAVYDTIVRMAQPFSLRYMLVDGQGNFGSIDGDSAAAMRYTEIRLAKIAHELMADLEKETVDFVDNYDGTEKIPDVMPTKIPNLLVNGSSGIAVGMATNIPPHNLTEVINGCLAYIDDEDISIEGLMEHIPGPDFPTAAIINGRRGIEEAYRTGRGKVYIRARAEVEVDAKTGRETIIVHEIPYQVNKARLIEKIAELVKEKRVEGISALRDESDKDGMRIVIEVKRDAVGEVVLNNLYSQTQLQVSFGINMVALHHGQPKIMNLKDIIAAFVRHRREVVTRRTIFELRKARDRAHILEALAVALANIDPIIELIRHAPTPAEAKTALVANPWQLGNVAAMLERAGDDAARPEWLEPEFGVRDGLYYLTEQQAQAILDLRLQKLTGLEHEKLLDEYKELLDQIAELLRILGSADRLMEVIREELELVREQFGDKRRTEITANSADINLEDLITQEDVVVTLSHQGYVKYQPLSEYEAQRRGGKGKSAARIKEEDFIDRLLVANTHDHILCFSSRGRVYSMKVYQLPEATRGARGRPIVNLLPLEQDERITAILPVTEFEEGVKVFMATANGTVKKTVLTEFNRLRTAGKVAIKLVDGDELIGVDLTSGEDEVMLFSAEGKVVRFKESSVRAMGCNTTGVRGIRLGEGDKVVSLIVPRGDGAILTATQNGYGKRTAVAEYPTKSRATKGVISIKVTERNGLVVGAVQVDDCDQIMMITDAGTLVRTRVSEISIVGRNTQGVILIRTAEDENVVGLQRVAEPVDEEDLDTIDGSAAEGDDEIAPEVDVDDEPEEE
SMILES,"IC50 [1, 10]",MIC [2],IC50 [1],IC50 [3],MIC [4],MIC [5],"MIC [6, 11]",MIC [7],MIC [8],MIC [9],"MIC ([6]; PAO1, 20 h)","IC50 [3, 12]"
"Cc1c(N2CC[C@@H]([C@H](C)N)C2)c(F)cc2cc(C(=O)O)c(=O)n(C3CC3)c12.Cl [Example 1.1, 7-((R)-3-((S)-1-aminoethyl)pyrrolidin-1-yl)-1-cyclopropyl-6-fluoro-8-methyl-2-oxo-1,2-dihydroquinoline-3-carboxylic acid hydrochloride salt]",0.68 µM,2 µg/mL,,,,,,,,,,
"Cc1c(N2CC[C@@H]([C@H](C)N)C2)c(F)cc2cc(N)c(=O)n(C3CC3)c12 [Example 8, 3-amino-7-((R)-3-((S)-1-aminoethyl)pyrrolidin-1-yl)-1-cyclopropyl-6-fluoro-8-methylquinolin-2(1H)-one hydrochloride salt]",1.68 µM,,,,,,,,,,,
"Cc1c(N2CC[C@@H]([C@H](C)N)C2)c(F)cc2ccc(=O)n(C3CC3)c12.Cl [Example 9.1, 7-((R)-3-((S)-1-aminoethyl)pyrrolidin-1-yl)-1-cyclopropyl-6-fluoro-8-methylquinolin-2(1H)-one hydrochloride salt]",,0.06 µg/mL,1.3 µM,9.91 µM,1 µg/mL,< 0.03 µg/mL,16 µg/mL,4 µg/mL,8 µg/mL,0.06 µg/mL,,
"Cc1c(N2CCC(C3(N)CC3)C2)c(F)cc2ccc(=O)n(C3CC3)c12 (centres unmarked) [Example 9.2, 7-(3-(1-Aminocyclopropyl)pyrrolidin-1-yl)-1-cyclopropyl-6-fluoro-8-methylquinolin-2(1H)-one]",1.19 µM,0.125 µg/mL,,,4 µg/mL,0.06 µg/mL,,16 µg/mL,32 µg/mL,0.125 µg/mL,> 32 µg/mL,
"Cc1c(N2CCNCC2)c(F)cc2ccc(=O)n(C3CC3)c12 [Example 9.3, 1-Cyclopropyl-6-fluoro-8-methyl-7-(piperazin-1-yl)quinolin-2(1H)-one]",,16 µg/mL,11.9 µM,> 100 µM,4 µg/mL,0.25 µg/mL,32 µg/mL,16 µg/mL,16 µg/mL,16 µg/mL,,
"Cc1c(-c2ccc(N)nc2)c(F)cc2ccc(=O)n(C3CC3)c12 [Example 10, 7-(6-Aminopyridin-3-yl)-1-cyclopropyl-6-fluoro-8-methylquinolin-2(1H)-one]",1.2 µM,0.25 µg/mL,,,4 µg/mL,< 0.03 µg/mL,,4 µg/mL,8 µg/mL,0.25 µg/mL,> 32 µg/mL,1.93 µM
"Cc1c(-c2ccc(N)nc2)c(F)cc2cc(O)c(=O)n(C3CC3)c12 [Example 11.2, 7-(6-aminopyridin-3-yl)-1-cyclopropyl-6-fluoro-3-hydroxy-8-methylquinolin-2(1H)-one]",8.07 µM,2 µg/mL,,,8 µg/mL,0.125 µg/mL,,16 µg/mL,> 32 µg/mL,1 µg/mL,> 32 µg/mL,
"COc1c(N2CC[C@@H]([C@H](C)N)C2)c(F)cc2cc(C(=O)O)c(=O)n(C3CC3)c12 [Example 12, 7-((R)-3-((S)-1-aminoethyl)pyrrolidin-1-yl)-1-cyclopropyl-6-fluoro-8-methoxy-2-oxo-1,2-dihydroquinoline-3-carboxylic acid hydrochloride]",4.64 µM,,,,,,,,,,,
"C#Cc1cc(=O)n(C2CC2)c2c(C)c(N3CC[C@@H]([C@H](C)N)C3)c(F)cc12 [Example 25, 7-((R)-3-((S)-1-aminoethyl)pyrrolidin-1-yl)-1-cyclopropyl-4-ethynyl-6-fluoro-8-methylquinolin-2(1H)-one]",1.03 µM,< 0.03 µg/mL,,,4 µg/mL,0.06 µg/mL,,2 µg/mL,4 µg/mL,0.06 µg/mL,8 µg/mL,6.46 µM
"Cc1c(N2CC[C@@H]([C@H](C)N)C2)c(F)cc2c(C#N)cc(=O)n(C3CC3)c12 [Example 27, 7-((R)-3-((S)-1-aminoethyl)pyrrolidin-1-yl)-1-cyclopropyl-6-fluoro-8-methyl-2-oxo-1,2-dihydroquinoline-4-carbonitrile]",0.13 µM,< 0.03 µg/mL,,,1 µg/mL,< 0.03 µg/mL,,1 µg/mL,2 µg/mL,< 0.03 µg/mL,4 µg/mL,0.59 µM
"Cc1c(N2CC[C@H](N)C2)c(F)cc2c(C#N)cc(=O)n(C3CC3)c12 [Example 30, (S)-7-(3-aminopyrrolidin-1-yl)-1-cyclopropyl-6-fluoro-8-methyl-2-oxo-1,2-dihydroquinoline-4-carbonitrile]",0.98 µM,0.5 µg/mL,,,1 µg/mL,< 0.03 µg/mL,,1 µg/mL,4 µg/mL,0.5 µg/mL,8 µg/mL,14.6 µM
"Cc1c(N2CC[C@@H]([C@H](C)N)C2)c(F)cc2c(C(=O)O)cc(=O)n(C3CC3)c12 [Example 33, 7-((R)-3-((S)-1-aminoethyl)pyrrolidin-1-yl)-1-cyclopropyl-6-fluoro-8-methyl-2-oxo-1,2-dihydroquinoline-4-carboxylic acid]",16.3 µM,> 32 µg/mL,,,32 µg/mL,16 µg/mL,,> 32 µg/mL,> 32 µg/mL,32 µg/mL,32 µg/mL,
"Cc1c(N2CC[C@@H]([C@H](C)N)C2)c(F)cc2c(C(N)=O)cc(=O)n(C3CC3)c12 [Example 34, 7-((R)-3-((S)-1-aminoethyl)pyrrolidin-1-yl)-1-cyclopropyl-6-fluoro-8-methyl-2-oxo-1,2-dihydroquinoline-4-carboxamide]",0.44 µM,4 µg/mL,,,32 µg/mL,2 µg/mL,,16 µg/mL,16 µg/mL,4 µg/mL,> 32 µg/mL,5.14 µM
"Cc1c(N2CC[C@@H]([C@H](C)N)C2)c(F)cc2c(-c3nnn[nH]3)cc(=O)n(C3CC3)c12 [Example 39, 7-((R)-3-((S)-1-aminoethyl)pyrrolidin-1-yl)-1-cyclopropyl-6-fluoro-8-methyl-4-(1H-tetrazol-5-yl)quinolin-2(1H)-one]",9.8 µM,> 32 µg/mL,,,32 µg/mL,32 µg/mL,,> 32 µg/mL,> 32 µg/mL,32 µg/mL,32 µg/mL,
"Cc1c(N2CC[C@@H]([C@H](C)N)C2)c(F)cc2c(OCc3n[nH]c(=O)o3)cc(=O)n(C3CC3)c12 [Example 64, 5-(((7-((R)-3-((S)-1-aminoethyl)pyrrolidin-1-yl)-1-cyclopropyl-6-fluoro-8-methyl-2-oxo-1,2-dihydroquinolin-4-yl)oxy)methyl)-1,3,4-oxadiazol-2(3H)-one]",3.2 µM,4 µg/mL,,,32 µg/mL,4 µg/mL,,> 32 µg/mL,> 32 µg/mL,8 µg/mL,> 32 µg/mL,
